Data on eleven cell lines can be found in the supplement of paper PMC10307832.

Holding throughout (experiment): relative viability (nuclei count vs DMSO), 5 days (fraction); higher = more cells survive
Compound in assay [1]: C1=CC2=C(C=C(C(=C2N=C1)O)N=NC3=CC4=C(C=C3)C=C(C=C4)S(=O)(=O)O)S(=O)(=O)O + CCNC(=O)c1noc(-c2cc(C(C)C)c(O)cc2O)c1-c1ccc(CN2CCOCC2)cc1 [Luminespib] (partner 0.01 µM)
The essentials:
(§1)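 For relative viability, nuclei counts in treated wells were divided by those in vehicle wells. Lung cancer cell lines had been pin-tool dosed in 1536-well plates the day after seeding and cultured for 5 days, then fixed and stained in one step (final 0.05% Triton X-100, 1% formaldehyde, 1 ug/ml Hoechst) and imaged at 4×. Doses were one drug alone or a fixed anchor-drug dose plus five library-drug doses (not always all listed) in √10 steps, and values are duplicate-plate medians.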

Compound in assay [2]: C1=CC2=C(C=C(C(=C2N=C1)O)N=NC3=CC4=C(C=C3)C=C(C=C4)S(=O)(=O)O)S(=O)(=O)O + N=C(N)NC(=N)NCCc1ccccc1 [Phenformin] (partner 250 µM)
The essentials:
as §1

Compound in the assay “AT-7519 + Linsitinib”: O=C(NC1CCNCC1)c1n[nH]cc1NC(=O)c1c(Cl)cccc1Cl [AT-7519] + C[C@]1(O)C[C@@H](c2nc(-c3ccc4ccc(-c5ccccc5)nc4c3)c3c(N)nccn32)C1 [Linsitinib] (partner 1 µM)
The essentials: as §1

Compound in assay [3]: C1=CC2=C(C=C(C(=C2N=C1)O)N=NC3=CC4=C(C=C3)C=C(C=C4)S(=O)(=O)O)S(=O)(=O)O + Nc1ncn([C@H]2C[C@H](O)[C@@H](CO)O2)c(=O)n1 [Decitabine] (partner 2 µM)
The essentials: as §1

Regarding NCI-H2228, the relative viability in assay [1] (first compound 0.08 µM) was 0.136; in assay [1] (first compound 0.253 µM), 0.13; in assay [1] (first compound 0.8 µM), 0.134; in assay [1] (first compound 2.53 µM) it was 0.166; in assay [1] (first compound 8 µM), 0.0984; in assay [2] (first compound 0.08 µM), 0.441. The relative viability in assay [2] (first compound 0.253 µM) is 0.341; in assay [2] (first compound 0.8 µM) it was 0.296; in assay [2] (first compound 2.53 µM), 0.303; in assay [2] (first compound 8 µM), 0.423; with AT-7519 + Linsitinib (first compound 0.01 µM) it was 0.618; in the assay with AT-7519 + Linsitinib (first compound 0.03162 µM) it was 0.564. Moreover, the relative viability with AT-7519 + Linsitinib (first compound 0.3162 µM) stood at 0.544; with AT-7519 + Linsitinib (first compound 1 µM) it was 0.312.
SW 900: the relative viability in assay [3] (first compound 0.08 µM) turned out to be 0.442; in assay [3] (first compound 0.253 µM), 0.412; in assay [3] (first compound 0.8 µM), 0.448; in assay [3] (first compound 2.53 µM), 0.473; in assay [3] (first compound 8 µM), 0.538; in assay [1] (first compound 0.08 µM) it was 0.175. The relative viability in assay [1] (first compound 0.253 µM) was found to be 0.2; in assay [1] (first compound 0.8 µM), 0.18; in assay [1] (first compound 2.53 µM), 0.186; in assay [1] (first compound 8 µM), 0.163; in assay [2] (first compound 0.08 µM), 0.576; in assay [2] (first compound 0.253 µM) it was 0.669. Further, the relative viability worked out at 0.517 in assay [2] (first compound 0.8 µM), 0.552 in assay [2] (first compound 2.53 µM) and 0.275 in assay [2] (first compound 8 µM).
Turning to NCI-H1563, the relative viability in assay [1] (first compound 0.08 µM) came to 0.514; in assay [1] (first compound 0.253 µM), 0.522; in assay [1] (first compound 0.8 µM), 0.489; in assay [1] (first compound 2.53 µM) it was 0.498; in assay [1] (first compound 8 µM), 0.404; in assay [2] (first compound 0.08 µM) it was 0.63. In addition, the relative viability in assay [2] (first compound 0.253 µM) stood at 0.677; in assay [2] (first compound 0.8 µM), 0.684; in assay [2] (first compound 2.53 µM), 0.626; in assay [2] (first compound 8 µM), 0.629; in the assay with AT-7519 + Linsitinib (first compound 0.01 µM), 1.2; with AT-7519 + Linsitinib (first compound 0.03162 µM) it was 1.25. The values for the relative viability with AT-7519 + Linsitinib (first compound 0.3162 µM) and with AT-7519 + Linsitinib (first compound 1 µM) were 1.25 and 1, respectively.
On to A549, for which the relative viability was 0.4 in assay [3] (first compound 0.08 µM); 0.252 in assay [3] (first compound 0.253 µM); 0.286 in assay [3] (first compound 0.8 µM); 0.231 in assay [3] (first compound 2.53 µM); 0.207 in assay [3] (first compound 8 µM); 0.203 in assay [2] (first compound 0.08 µM). For the same cell line, the relative viability in assay [2] (first compound 0.253 µM) is 0.155; in assay [2] (first compound 0.8 µM), 0.189; in assay [2] (first compound 2.53 µM), 0.186; in assay [2] (first compound 8 µM), 0.0602; with AT-7519 + Linsitinib (first compound 0.01 µM) it was 0.658; in the assay with AT-7519 + Linsitinib (first compound 0.03162 µM) it was 0.552. Besides, the relative viability in the assay with AT-7519 + Linsitinib (first compound 0.3162 µM) was found to be 0.629; in the assay with AT-7519 + Linsitinib (first compound 1 µM) it was 0.39.
Take NCI-H2342: the relative viability came out at 0.793 in assay [3] (first compound 0.08 µM); 0.705 in assay [3] (first compound 0.253 µM); 0.724 in assay [3] (first compound 0.8 µM); 0.806 in assay [3] (first compound 2.53 µM); 0.705 in assay [3] (first compound 8 µM); 0.67 in assay [1] (first compound 0.08 µM). In addition, the relative viability in assay [1] (first compound 0.253 µM) amounted to 0.714; in assay [1] (first compound 0.8 µM), 0.625; in assay [1] (first compound 2.53 µM), 0.767; in assay [1] (first compound 8 µM) it was 0.73; in assay [2] (first compound 0.08 µM) it was 0.629; in assay [2] (first compound 0.253 µM), 0.582. Moreover, the relative viability in assay [2] (first compound 0.8 µM) turned out to be 0.537; in assay [2] (first compound 2.53 µM), 0.621; in assay [2] (first compound 8 µM), 0.528.
For NCI-H2170, the relative viability was 0.494 in assay [3] (first compound 0.08 µM); 0.454 in assay [3] (first compound 0.253 µM); 0.464 in assay [3] (first compound 0.8 µM); 0.429 in assay [3] (first compound 2.53 µM); 0.459 in assay [3] (first compound 8 µM); 0.83 in assay [1] (first compound 0.08 µM). The relative viability in assay [1] (first compound 0.253 µM) is 0.63; in assay [1] (first compound 0.8 µM), 0.672; in assay [1] (first compound 2.53 µM) it was 0.731; in assay [1] (first compound 8 µM), 0.895; in assay [2] (first compound 0.08 µM) it was 0.46; in assay [2] (first compound 0.253 µM) it was 0.404. In addition, the relative viability in assay [2] (first compound 0.8 µM) was 0.417; in assay [2] (first compound 2.53 µM), 0.424; in assay [2] (first compound 8 µM), 0.391.
NCI-H1623: the relative viability in assay [1] (first compound 0.08 µM) was 0.747; in assay [1] (first compound 0.253 µM), 0.471; in assay [1] (first compound 0.8 µM), 0.471; in assay [1] (first compound 2.53 µM), 0.503; in assay [1] (first compound 8 µM), 0.559; in assay [2] (first compound 0.08 µM), 0.565. Further, the relative viability in assay [2] (first compound 0.253 µM) amounted to 0.541; in assay [2] (first compound 0.8 µM), 0.609; in assay [2] (first compound 2.53 µM), 0.589; in assay [2] (first compound 8 µM) it was 0.278.
For NCI-H522, the relative viability worked out at 0.561 in assay [3] (first compound 0.08 µM); 0.644 in assay [3] (first compound 0.253 µM); 0.689 in assay [3] (first compound 0.8 µM); 0.683 in assay [3] (first compound 2.53 µM); 0.6 in assay [3] (first compound 8 µM); 1.21 in assay [1] (first compound 0.08 µM). Further, the relative viability in assay [1] (first compound 0.253 µM) worked out at 1.19; in assay [1] (first compound 0.8 µM), 0.983; in assay [1] (first compound 2.53 µM) it was 1.16; in assay [1] (first compound 8 µM) it was 1.11; in assay [2] (first compound 0.08 µM), 0.658; in assay [2] (first compound 0.253 µM), 0.64. Further, the relative viability in assay [2] (first compound 0.8 µM) stood at 0.71; in assay [2] (first compound 2.53 µM), 0.603; in assay [2] (first compound 8 µM), 0.612.
On to IA-LM, for which the relative viability in the assay with AT-7519 + Linsitinib (first compound 0.01 µM) turned out to be 0.765; with AT-7519 + Linsitinib (first compound 0.03162 µM), 0.491; with AT-7519 + Linsitinib (first compound 0.3162 µM), 0.442; with AT-7519 + Linsitinib (first compound 1 µM) it was 0.548.
On to CAL-12T, for which the relative viability in assay [1] (first compound 0.08 µM) came to 0.466; in assay [1] (first compound 0.253 µM) it was 0.519; in assay [1] (first compound 0.8 µM) it was 0.616; in assay [1] (first compound 2.53 µM), 0.207; in assay [1] (first compound 8 µM) it was 0.335; in assay [2] (first compound 0.08 µM) it was 0.536. Also, the relative viability amounted to 0.522 in assay [2] (first compound 0.253 µM); 0.502 in assay [2] (first compound 0.8 µM); 0.693 in assay [2] (first compound 2.53 µM); 0.358 in assay [2] (first compound 8 µM); 0.755 with AT-7519 + Linsitinib (first compound 0.01 µM); 0.752 with AT-7519 + Linsitinib (first compound 0.03162 µM). Further, the relative viability was found to be 0.69 with AT-7519 + Linsitinib (first compound 0.3162 µM) and 0.314 in the assay with AT-7519 + Linsitinib (first compound 1 µM).
Regarding EBC-1, the relative viability with AT-7519 + Linsitinib (first compound 0.01 µM) came to 0.935; in the assay with AT-7519 + Linsitinib (first compound 0.03162 µM), 1.01; with AT-7519 + Linsitinib (first compound 0.3162 µM) it was 0.938; with AT-7519 + Linsitinib (first compound 1 µM), 0.934.
